Assay [1] concerns the target T1, human dopamine D2 (D2S) receptor (Homo sapiens, UniProt P14416).
T1 construct: expressed in transfected cells; host or cells: CHO-K1
The experiment in a line: Competition radioligand binding, [3H]-spiperone, CHO-K1 membranes. Particulars: for Ki: human cloned D2S; for inhibition at 10 µM: read-out: % inh. at 10 μM D2.
Method: (§1) Experiments were carried out in membranes from cell lines stably expressing the human cloned receptors.
(§2) Competition radioligand binding assays were performed on membranes isolated from cell lines stable expressing the cloned human receptors, which were either in-house or commercially available. […] Assays (250 μL assay final volume) were carried out in 96-well polypropylene plates in duplicate. In short, suspension of appropriate membrane protein was incubated in assay buffer with addition of the corresponding radioligand, in the presence or absence of tested compound or reference compound. […] After the incubation, the content of the test plates was transferred to 96-well plates with glass fibre filter GF/B or GF/C, previously pre-treated with polyethyleneimine (PEI), and rapidly filtered with the use of vacuum, followed by rapid washing with cold (4 °C) wash buffer. After that the filter plates were dried at 60 °C for 1 h. Then, 30 μL of liquid scintillation cocktail (UniverSol-ES, MP Biomedicals, Solon, OH) was added to each well of the filter plates and the radioactivity was measured in a MicroBeta2 microplate scintillation counter (PerkinElmer, Madrid, Spain).
(§3) Competition binding curves were fitted to a one-site competition binding model (Fit Ki) with the use of Prism 7 software (GraphPad, San Diego, CA). logKi (log of the equilibrium dissociation constant (Ki)) values were obtained after constraining the concentration of radioligand employed in the assay and its dissociation constant (KD) as determined in saturation radioligand binding assays.

Assay [2] deals with T2, human serotonin 5-HT2A receptor (Homo sapiens, UniProt P28223).
T2 construct: expressed in transfected cells; host or cells: CHO-K1
T2 sequence (P28223 whole entry): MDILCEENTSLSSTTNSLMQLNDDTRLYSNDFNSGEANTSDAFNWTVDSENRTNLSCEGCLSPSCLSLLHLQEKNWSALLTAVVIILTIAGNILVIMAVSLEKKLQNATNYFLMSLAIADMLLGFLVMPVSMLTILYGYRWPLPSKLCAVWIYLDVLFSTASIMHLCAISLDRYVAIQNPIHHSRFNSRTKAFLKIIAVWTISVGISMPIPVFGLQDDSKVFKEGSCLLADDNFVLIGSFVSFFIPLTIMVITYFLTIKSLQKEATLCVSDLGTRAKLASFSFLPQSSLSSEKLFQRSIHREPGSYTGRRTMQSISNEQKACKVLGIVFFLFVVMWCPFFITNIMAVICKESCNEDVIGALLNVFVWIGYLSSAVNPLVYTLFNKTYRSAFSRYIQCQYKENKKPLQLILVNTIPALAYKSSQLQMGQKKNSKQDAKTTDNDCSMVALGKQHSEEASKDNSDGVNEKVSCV
Briefly: Competition radioligand binding, [3H]-Ketanserin, CHO-K1 membranes. Particulars: for Ki: human cloned 5-HT2A; for pKi 5-HT2A/pKi D2: ratio of pKi values; for inhibition at 10 µM: read-out: % inh. at 10 μM 5-HT2A.
Method: as §1, §2, §3

Assay [3] concerns the target T3, human serotonin 5-HT1A receptor (Homo sapiens, UniProt P08908).
T3 construct: expressed in transfected cells; host or cells: HEK293
T3 sequence (P08908 1-422): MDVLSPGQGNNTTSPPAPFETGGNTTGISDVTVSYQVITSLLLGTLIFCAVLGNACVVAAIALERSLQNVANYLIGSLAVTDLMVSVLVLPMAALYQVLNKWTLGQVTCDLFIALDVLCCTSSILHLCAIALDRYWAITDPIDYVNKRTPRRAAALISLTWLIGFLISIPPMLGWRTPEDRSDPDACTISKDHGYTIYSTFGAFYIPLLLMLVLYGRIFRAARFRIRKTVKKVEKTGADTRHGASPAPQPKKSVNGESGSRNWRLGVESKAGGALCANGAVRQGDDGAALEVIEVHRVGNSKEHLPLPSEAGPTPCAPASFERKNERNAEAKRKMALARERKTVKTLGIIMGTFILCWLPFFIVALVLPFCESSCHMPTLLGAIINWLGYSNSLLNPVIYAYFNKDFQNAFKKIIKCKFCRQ
The experiment in a line: Competition radioligand binding, [3H]-8-OH-DPAT, HEK293 membranes. The conditions noted are these: for Ki: human cloned 5-HT1A, read-out: Ki 5-HT1A (converted); for inhibition at 10 µM: read-out: % inh. at 10 μM 5-HT1A.
Method: as §1, §2, §3

Another assay relates to mice. The experiment in a line: Amphetamine-induced hyperactivity. Particulars: 5 mg/kg s.c., recorded 30 min, p < 0.0001.
Assay [4] has as its target T4, human muscarinic M1 receptor (Homo sapiens, UniProt P11229).
T4 construct: expressed in transfected cells; host or cells: CHO-K1
T4 sequence (P11229 1-460): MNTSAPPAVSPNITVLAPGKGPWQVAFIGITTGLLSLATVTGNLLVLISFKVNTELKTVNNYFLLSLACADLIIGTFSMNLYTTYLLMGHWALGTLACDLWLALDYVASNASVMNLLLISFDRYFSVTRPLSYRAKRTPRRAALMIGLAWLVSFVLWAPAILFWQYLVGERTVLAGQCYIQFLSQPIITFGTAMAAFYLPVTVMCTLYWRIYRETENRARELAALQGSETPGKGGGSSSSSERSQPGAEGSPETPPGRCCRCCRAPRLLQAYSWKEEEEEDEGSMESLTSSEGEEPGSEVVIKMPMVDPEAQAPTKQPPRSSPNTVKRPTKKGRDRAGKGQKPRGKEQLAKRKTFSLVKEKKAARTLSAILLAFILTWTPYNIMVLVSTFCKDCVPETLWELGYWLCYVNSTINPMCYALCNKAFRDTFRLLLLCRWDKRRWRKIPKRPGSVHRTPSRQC
The experiment in a line: Competition radioligand binding, [3H]-pirenzepine, CHO-K1 membranes. The conditions noted are these: read-out: % inh. at 10 μM M1.
Method: as §2, §3

The target of assay [5] is T5, human dopamine D3 receptor (Homo sapiens, UniProt P35462).
T5 construct: expressed in transfected cells; host or cells: CHO-K1
T5 sequence (P35462 whole entry): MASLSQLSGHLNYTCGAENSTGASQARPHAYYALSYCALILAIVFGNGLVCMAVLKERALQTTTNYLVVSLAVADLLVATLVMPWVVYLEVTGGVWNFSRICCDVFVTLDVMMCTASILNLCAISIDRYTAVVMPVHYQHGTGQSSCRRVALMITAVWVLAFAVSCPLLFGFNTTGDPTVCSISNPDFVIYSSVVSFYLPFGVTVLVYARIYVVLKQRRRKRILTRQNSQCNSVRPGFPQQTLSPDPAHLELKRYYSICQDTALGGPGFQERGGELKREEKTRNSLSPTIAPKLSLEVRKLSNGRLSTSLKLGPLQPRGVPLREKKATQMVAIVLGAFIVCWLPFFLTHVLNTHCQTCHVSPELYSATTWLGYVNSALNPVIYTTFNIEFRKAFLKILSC
Briefly: Competition radioligand binding, [3H]-spiperone, CHO-K1 membranes.
Method: as §2, §3

The next assay deals with T6, human 5-HT2A receptor (Homo sapiens, UniProt P28223).
T6 construct: expressed in transfected cells; host or cells: CHO-K1
T6 sequence (P28223 whole entry): as the sequence (P28223 whole entry) above
The experiment in a line: Functional assay of inositol phosphate production (5-HT2A antagonism), CHO-K1 cells. The assay is classed as cell-based.

A further assay concerns the target T7, human 5-HT1A receptor (Homo sapiens, UniProt P08908).
T7 construct: expressed in transfected cells; host or cells: HEK293
T7 sequence (P08908 1-422): T3 sequence (P08908 1-422)
The experiment in a line: Functional assay of cAMP signalling (5-HT1A agonism), HEK293 cells. The assay is classed as cell-based.

A further assay has as its target T8, human 5-HT7 receptor (Homo sapiens, UniProt P34969).
T8 construct: expressed in transfected cells; host or cells: HEK293
The experiment in a line: Competition radioligand binding, [3H]-SB269970, HEK293 membranes.

The target of a further assay is human D2S receptor (Homo sapiens, UniProt P14416). Briefly: Functional assay of cAMP signalling (D2 antagonism), CHO-K1 cells.
human D2S receptor, sequence (P14416 1-414 isoform P14416-2): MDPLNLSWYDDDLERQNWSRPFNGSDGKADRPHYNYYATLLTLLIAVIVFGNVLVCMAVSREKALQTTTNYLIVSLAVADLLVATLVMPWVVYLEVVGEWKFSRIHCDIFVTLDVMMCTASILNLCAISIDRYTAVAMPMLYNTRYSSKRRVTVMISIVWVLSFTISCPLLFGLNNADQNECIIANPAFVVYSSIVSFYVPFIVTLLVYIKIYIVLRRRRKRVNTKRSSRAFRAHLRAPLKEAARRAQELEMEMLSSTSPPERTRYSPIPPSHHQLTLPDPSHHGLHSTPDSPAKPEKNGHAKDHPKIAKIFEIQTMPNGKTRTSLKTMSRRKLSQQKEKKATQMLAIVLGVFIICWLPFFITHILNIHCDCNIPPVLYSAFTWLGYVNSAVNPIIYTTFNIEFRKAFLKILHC
For assay [6], the target named is T9, human histamine H1 receptor (Homo sapiens, UniProt P35367).
T9 construct: expressed in transfected cells; host or cells: CHO-K1
T9 sequence (P35367 whole entry): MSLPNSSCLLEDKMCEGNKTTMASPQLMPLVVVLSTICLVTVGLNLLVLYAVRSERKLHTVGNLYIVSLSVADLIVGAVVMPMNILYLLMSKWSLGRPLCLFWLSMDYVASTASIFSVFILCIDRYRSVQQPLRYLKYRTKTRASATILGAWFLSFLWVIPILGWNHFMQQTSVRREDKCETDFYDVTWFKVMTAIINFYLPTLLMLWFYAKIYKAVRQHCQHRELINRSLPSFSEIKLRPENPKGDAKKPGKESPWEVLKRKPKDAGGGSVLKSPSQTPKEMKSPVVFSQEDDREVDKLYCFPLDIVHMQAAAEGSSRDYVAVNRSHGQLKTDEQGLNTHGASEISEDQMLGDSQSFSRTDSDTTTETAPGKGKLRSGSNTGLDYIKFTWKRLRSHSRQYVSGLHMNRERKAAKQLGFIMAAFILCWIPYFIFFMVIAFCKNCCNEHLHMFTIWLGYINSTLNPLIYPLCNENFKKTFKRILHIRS
Briefly: Competition radioligand binding, [3H]-pyrilamine, CHO-K1 membranes.
Method: as §2, §3

Setting [7] is: mean ± SEM, read-out: pKi D2 (converted).

In general, Kb refers to the equilibrium dissociation constant of an antagonist, usually derived from a functional assay. As usually defined, the EC50 is the concentration needed to bring the measured effect to its halfway point. The low end stands for an effect from little substance, the high end for a need for much substance.

Read-outs that look alike come from different tables or passages of the source.

T1 sequence (P14416 1-414 isoform P14416-2): as the sequence (P14416 1-414 isoform P14416-2) above
T8 sequence (P34969 whole entry): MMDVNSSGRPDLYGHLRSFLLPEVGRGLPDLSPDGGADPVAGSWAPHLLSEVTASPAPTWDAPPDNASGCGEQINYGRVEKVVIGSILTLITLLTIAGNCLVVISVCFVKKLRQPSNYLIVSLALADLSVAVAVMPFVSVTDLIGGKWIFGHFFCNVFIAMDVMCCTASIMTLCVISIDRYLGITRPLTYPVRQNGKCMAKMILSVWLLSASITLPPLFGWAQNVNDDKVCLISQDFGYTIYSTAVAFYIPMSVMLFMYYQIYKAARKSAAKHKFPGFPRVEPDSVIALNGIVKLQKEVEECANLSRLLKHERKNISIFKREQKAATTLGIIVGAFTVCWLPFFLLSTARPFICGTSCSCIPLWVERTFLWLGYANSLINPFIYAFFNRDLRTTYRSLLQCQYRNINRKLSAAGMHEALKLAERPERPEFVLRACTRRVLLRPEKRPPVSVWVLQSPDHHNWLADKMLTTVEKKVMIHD
Method for human 5-HT1A receptor: The activity of selected compounds at 5-HT1A receptor was investigated in cell-based functional assays of cAMP signalling in the HEK293 cell line stably expressing the cloned human 5-HT1A receptor also employed for the radioligand binding assays. […] Test compounds were added to the assay plates from 5× working dilution intermediate plates, which were prepared by means of acoustic noncontact dispensing of the compounds, keeping vehicle concentration (0.1% DMSO) constant in the assay.
Method for human 5-HT2A receptor: The activity of selected compounds at 5-HT2A receptors was investigated in cell-based functional assays of IP production in the CHO-K1 cell line stably expressing the cloned human 5-HT2A receptor also employed for the radioligand binding assays. Twenty-four hours before the experiment, cells in culture were seeded in complete growth medium prepared with dialysed foetal bovine serum, in half-area, white, 96-well tissue culture plates (Corning®, Fisher Scientific SL, Madrid, Spain). At the day of assay, plates were washed with assay buffer (kit stimulation buffer) and incubated with test compounds for 10 min at 37 °C. Test compounds were added to the assay plates from 7× working dilution intermediate plates that were prepared by means of acoustic noncontact dispensing of the compounds, keeping vehicle concentration (0.1% DMSO) constant in the assay. […] After this time, cellular IP levels were quantified by using the HTRF-based inositol monophosphate kit IP-One Gq kit (Cisbio, Bioassays, Codolet, France) following the manufacturer’s protocol. […] Basal IP levels were determined in control wells in the absence of compound and agonist. […] Kb value of the compounds was estimated as described above for functional assays of cAMP signalling at D2 receptors.
Method for human 5-HT7 receptor: as §2, §3

For the compound `O=C(NCCCN1CCN(c2ccccn2)CC1)c1n[nH]c2ccccc12` [Compound 5, N-(3-(4-(pyridin-2-yl)piperazin-1-yl)propyl)-1H-indazole-3-carboxamide], the Ki in assay [1] (read-out: Ki D2 (converted)) was 339 nM; in assay [2], 132 nM; in assay [3] it was 113 nM. Moreover, in assay [2], the “pKi 5-HT2A/pKi D2” value is listed as 1.06.
Regarding `O=C(NCCCN1CCN(c2ccccc2F)CC1)c1n[nH]c2ccccc12` [Compound 9, N-(3-(4-(2-fluorophenyl)piperazin-1-yl)propyl)-1H-indazole-3-carboxamide], the Ki was 41.7 nM in assay [1] (setting [7]), 42.2 nM in assay [1] (read-out: Ki D2 (converted)), 117 nM in [2] and 135 nM in assay [3]. In assay [2], the “pKi 5-HT2A/pKi D2” value is recorded as 0.94.
With `CCOc1ccccc1N1CCN(CCCNC(=O)c2n[nH]c3ccccc23)CC1` [Compound 15, N-(3-(4-(2-ethoxyphenyl)piperazin-1-yl)propyl)-1H-indazole-3-carboxamide], the Ki in assay [1] (read-out: Ki D2 (converted)) was 19.8 nM; in assay [2], 280 nM; in assay [3], 46.9 nM. In addition, the “pKi 5-HT2A/pKi D2” value in [2] was 0.85.
On to `O=C(NCCCN1CCN(c2ncccn2)CC1)c1n[nH]c2ccccc12` [Compound 8, N-(3-(4-(pyrimidin-2-yl)piperazin-1-yl)propyl)-1H-indazole-3-carboxamide], for which the figures for the Ki in assay [1] (read-out: Ki D2 (converted)), in assay [2] and in assay [3] were 480 nM, 807 nM and 238 nM, respectively. Further, in assay [2], the “pKi 5-HT2A/pKi D2” value is on record as 0.96.
Consider `O=C(NCCCN1CCN(c2cccnc2)CC1)c1n[nH]c2ccccc12` [Compound 6, N-(3-(4-(pyridin-3-yl)piperazin-1-yl)propyl)-1H-indazole-3-carboxamide], for which the Ki is 1010 nM in [1] (read-out: Ki D2 (converted)), 2650 nM in assay [2] and 1380 nM in assay [3]. Also, the “pKi 5-HT2A/pKi D2” value in assay [2] stood at 0.93.
The matching figures for `CSc1ccccc1N1CCN(CCCNC(=O)c2n[nH]c3ccccc23)CC1` [Compound 14, N-(3-(4-(2-(methylthio)phenyl)piperazin-1-yl)propyl)-1H-indazole-3-carboxamide]: 7.05 nM, 217 nM, 12.4 nM and 0.82.
In the case of `COc1ccc(N2CCN(CCCNC(=O)c3n[nH]c4ccccc34)CC2)cc1` [Compound 4, N-(3-(4-(4-methoxyphenyl)piperazin-1-yl)propyl)-1H-indazole-3-carboxamide], the inhibition at 10 µM in assay [1] is 46 ± 6%; in assay [3], 58.4 ± 1.8%. The compound further showed a Ki in [2] of 491 nM.
With `O=C(NCCCN1CCN(c2ccccc2Cl)CC1)c1n[nH]c2ccccc12` [Compound 13, N-(3-(4-(2-chlorophenyl)piperazin-1-yl)propyl)-1H-indazole-3-carboxamide], the results for the Ki in [1] (read-out: Ki D2 (converted)), in assay [2] and in [3] were 69.7 nM, 134 nM and 107 nM, respectively. Further, the “pKi 5-HT2A/pKi D2” value in assay [2] stood at 0.96.
Turning to `O=C(NCCCN1CCN(c2ccccc2C(F)(F)F)CC1)c1n[nH]c2ccccc12` [Compound 12, N-(3-(4-(2-(trifluoromethyl)phenyl)piperazin-1-yl)propyl)-1H-indazole-3-carboxamide], the Ki was 44.7 nM in [1] (setting [7]), 45.2 nM in [1] (read-out: Ki D2 (converted)), 832 nM in assay [2] and 423 nM in assay [3]. Besides, the “pKi 5-HT2A/pKi D2” value in assay [2] was 0.83.
For `O=C(NCCCN1CCN(c2ccncc2)CC1)c1n[nH]c2ccccc12` [Compound 7, N-(3-(4-(pyridin-4-yl)piperazin-1-yl)propyl)-1H-indazole-3-carboxamide], the inhibition at 10 µM in assay [1] stood at 0%; in assay [2], 0%; in assay [3] it was 27.9 ± 2.7%.
As to `COc1cccc(N2CCN(CCCNC(=O)c3n[nH]c4ccccc34)CC2)c1` [Compound 3, N-(3-(4-(3-methoxyphenyl)piperazin-1-yl)propyl)-1H-indazole-3-carboxamide], the values for the Ki in assay [1] (read-out: Ki D2 (converted)), in assay [2] and in assay [3] were 315 nM, 184 nM and 110 nM, respectively. In [2], the “pKi 5-HT2A/pKi D2” value is on record as 1.04.
Regarding `CC(N)Cc1ccccc1` (stereo not shown) [amphetamine, reference compound], in the assay with mice, the “Locomotor activity vs. vehicle group” value was “increased locomotor activity”.
Consider `O=C(NCCCN1CCN(C2CCCCC2)CC1)c1n[nH]c2ccccc12` [Compound 16, N-(3-(4-cyclohexylpiperazin-1-yl)propyl)-1H-indazole-3-carboxamide], for which the inhibition at 10 µM in [1] was found to be 19 ± 6.8%; in assay [2], 25.6 ± 9%; in [3] it was 56.7 ± 1.6%.
For the compound `COc1ccccc1N1CCN(CCCNC(=O)c2n[nH]c3ccccc23)CC1` [Compound 2, N-(3-(4-(2-methoxyphenyl)piperazin-1-yl)propyl)-1H-indazole-3-carboxamide], the Ki in assay [1] (read-out: Ki D2 (converted)) is 22.7 nM; in assay [2] it was 372 nM; in [3] it was 22.9 nM. Moreover, the “pKi 5-HT2A/pKi D2” value in assay [2] is given as 0.84.
For the compound `O=C(NCCCN1CCN(c2ccc(F)cc2)CC1)c1n[nH]c2ccccc12` [Compound 11, N-(3-(4-(4-fluorophenyl)piperazin-1-yl)propyl)-1H-indazole-3-carboxamide], the inhibition at 10 µM in assay [4] amounted to 0%; on human 5-HT2A receptor (CHO-K1, read-out: 5-HT2A antagonism %inh. of 5-HT response), 103 ± 2.2%; on human 5-HT1A receptor (HEK293, 10 µM compound, 1 µM forskolin, read-out: 5-HT1A agonism %inh. of FSK response), 75.3 ± 6.8%; at human D2S receptor (CHO-K1, read-out: D2 antagonism %inh. of DA response), 49.7 ± 8%. The Ki was 450 nM in assay [1] (read-out: Ki D2 (converted)); 5010 nM in assay [5]; 12.6 nM in assay [2]; 196 nM on human 5-HT7 receptor; 607 nM in assay [3]; 364 nM in assay [6]. Moreover, the Kb at human 5-HT2A receptor (read-out: 5-HT2A antagonism (IP signalling) Kb) was found to be 19.2 ± 7.2 nM; at human D2S receptor, 99.1 nM. On human 5-HT1A receptor, this compound came in with an EC50 of 5600 ± 1200 nM. Further, in assay [2], the “pKi 5-HT2A/pKi D2” value turned out to be 1.24. Further, on human D2S receptor (CHO-K1, read-out: % of inhibition of 1 µM dopamine response), the inhibition at 1 µM came to 21.3 ± 4.3%.
